Reference: patent US8673850B2, “PCSK9 inhibitors and methods of use thereof” (Institut de Recherches Cliniques de Montreal, priority 2008, dated 2014)
One block for each molecule: values may come before it.

How the values were obtained:
PCSK9-LDLR interaction = PCSK9-LDLR interaction (Homo sapiens, UniProt Q8NBP7); assay: AlphaScreen PCSK9-LDLR interaction assay; assay type: binding
Method: AlphaScreen® (Perkin Elmer) streptavidin donor beads were coated with purified biotin-conjugated PCSK9 and AlphaScreen® nickel chelate acceptor beads were coated with purified His6-conjugated LDLR ectodomain. Competition in the AlphaScreen® PCSK9-LDLR interaction assay was measured, in the presence of increasing concentrations of AnxA2-derived peptides, as a reduction of fluorescence.

[1] = tested on: PCSK9-induced LDLR degradation; assay: LDLR Western blot of HepG2 cells incubated with PCSK9 conditioned media with or without purified AnxA2; assay type: cell-based, human
Method: (§1) HepG2, HuH7, COS-1, BSC40 and HEK293 cell were grown in Dulbecco's modified Eagle's medium (DMEM) with 10% fetal bovine serum (FBS; Gibco), whereas CHO-K1 and CHO-K1 mutant Pgsd-677 cells that lack heparan sulfate proteoglycans^26 were grown in Ham's F12:DMEM (50:50) media with 10% FBS. Y1 mouse adrenal cells were grown in F12K medium with 15% horse serum and 2.5% FBS. All cells were maintained at 37° C. under 5% CO2. At 80-90% confluence, HuH7 and CHO-K1 cells were transiently transfected with Lipofectamine™ 2000 (Invitrogen), HEK293 cells were transfected with Effectene™ (Qiagen) and HepG2 cells were transfected with Fugene™ HD (Roche). […] For analysis of the various AnxA2 mutants in HEK293 cells, 24 h post-transfection, the cells were washed and then incubated for another 24 h in complete medium containing 50 μM of the proteasome inhibitor ALLN (Calbiochem). Stable transfectants of shRNA-AnxA2 were obtained in HuH7 cells following puromycin selection.
Western blotting experiments were made on samples that were reduced in Laemmli buffer, heated and resolved on 8% glycine SDS-PAGE gels. Separated proteins were then electro-transferred onto nitrocellulose, and probed with HRP-conjugated anti-V5 or anti-HA tags or with primary antibodies. […] Quantitation of band intensity was done with the ImageJ™ software version 1.37 (Wayne Rasband, National Institutes of Health, Bethesda, Md.). […]

PCSK9 = target: T1, PCSK9 (Homo sapiens, UniProt Q8NBP7); assay: Cell surface PCSK9 immunofluorescence on CHO-K1 cells overexpressing the LDLR; assay type: cell-based; details: 1 μg purified PCSK9, 4° C., 5 or 20 μg purified AnxA2
T1 construct: purchased Bristol-Myers Squibb (gift, not bought); host or cells: added to CHO-K1 cells overexpressing the LDLR
Method: (§2) For immuno-cytochemistry, cells were plated on glass bottom culture dishes (MatTek) and then transfected the following day. Twenty-four hours post-transfection, the cells were washed with DMEM, incubated for an additional 20 h without serum and then washed 3 times with PBS. Cell surface labelings were made under non-permeabilizing conditions by fixation with 3.7% formaldehyde for 10 min at room temperature. Cells were then washed in PBS, incubated for 5 min in 150 mM glycine, washed once in PBS and incubated for 30 min in 1% bovine serum albumin in PBS. Cells were incubated overnight at 4° C. with primary antibodies and then washed 4× with PBS. […] After several washes in PBS, cells were covered with 5% 1,4-diazabicyclo[2.2.2]octane (Sigma) in PBS/glycerol 90% and immunofluorescence analyses were performed with a Zeiss LSM-510 confocal microscope.
Finally, addition of 1 μg of purified PCSK9 to CHO-K1 cells overexpressing the LDLR at 4° C. […] Therefore, it was deduced that because of its interaction with the CHRD AnxA2 reduces the level of cell surface PCSK9 likely bound to the LDLR. Without being bound by this hypothesis, PCSK9's reduced binding to LDLR induces a more rapid internalization of PCSK9 into the cell.

PCSK9-V5 [2] = target: T2, PCSK9-V5 (Homo sapiens, UniProt Q8NBP7); assay: Hexa-His pull-down assay; assay type: binding; set-up: made in house; host or cells: CHO-K1 cells (conditioned medium, not purified); details: 20 μg protein immobilized on cobalt chelate resin
Method: 20 μg of purified AnxA2-(His)6 or AnxA1-(His)6 or no proteins (for negative control) were immobilized onto a cobalt chelate resin (Thermo Scientific). The resin was then washed several times with 40 mM immidazole and incubated overnight at 4° C. with 800 μl of conditioned media from PCSK9-V5-transfected CHO-K1 cells containing 40 mM immidazole. The resin was then washed several times with immidazole (40 mM), heated in reducing Laemmli sample buffer and centrifuged. Supernatants were analyzed by Western blot as described above using the anti-V5-HRP or anti-His-HRP antibodies.
Target sequence in this assay (Q8NBP7 153-692): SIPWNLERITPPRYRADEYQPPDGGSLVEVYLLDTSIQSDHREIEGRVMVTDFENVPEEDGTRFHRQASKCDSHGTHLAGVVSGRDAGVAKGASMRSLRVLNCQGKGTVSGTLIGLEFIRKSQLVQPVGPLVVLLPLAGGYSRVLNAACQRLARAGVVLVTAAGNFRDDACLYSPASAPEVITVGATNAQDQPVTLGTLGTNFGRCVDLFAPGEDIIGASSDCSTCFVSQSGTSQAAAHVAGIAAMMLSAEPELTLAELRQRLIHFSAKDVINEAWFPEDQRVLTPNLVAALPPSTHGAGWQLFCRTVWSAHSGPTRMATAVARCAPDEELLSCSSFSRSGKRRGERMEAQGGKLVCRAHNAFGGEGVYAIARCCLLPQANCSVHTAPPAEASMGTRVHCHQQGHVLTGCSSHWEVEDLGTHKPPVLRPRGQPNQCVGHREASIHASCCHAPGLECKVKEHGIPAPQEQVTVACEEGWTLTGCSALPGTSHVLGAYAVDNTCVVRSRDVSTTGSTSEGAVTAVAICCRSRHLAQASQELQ
Target sequence in this assay (Q8NBP7 31-152 partner limits assumed): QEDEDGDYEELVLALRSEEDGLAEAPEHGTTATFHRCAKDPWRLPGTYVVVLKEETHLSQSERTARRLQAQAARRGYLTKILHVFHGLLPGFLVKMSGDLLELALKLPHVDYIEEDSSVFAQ

PCSK9-V5 [3] = target: T2, PCSK9-V5; assay: Far Western blot with PCSK9-V5 conditioned media; assay type: binding; set-up: made in house; host or cells: CHO-K1 cells (conditioned medium, not purified)
Method: Lysates (20 to 30 μg protein), media or purified AnxA2-(His)6 were heated in reducing or non-reducing Laemmli sample buffer, resolved by SDS-PAGE on 8% glycine gels and electro-transferred onto nitrocellulose membranes (GE Healthcare). Following 1 h incubation in 5% skim milk in Tris-Buffered Saline-0.1% Tween (TBST), membranes where incubated with conditioned media of CHO-K1 cells overexpressing either an empty vector (pIRES-V5), PC5A-V5, CHRD-V5, pIRES-D374Y, PCSK9-V5 or its V5-tagged mutants, or incubated with purified AnxA2-(His)6 for 3 h at room temperature. […] For competition experiments, 10 μg of His-tagged PCSK9 or CHRD were added to the PCSK9-V5 media before Far Western blotting. For PCSK9 binding requirements with the ˜33 kDa protein, 1M NaCl, 10 mg/ml heparin, 1M NaCl+10 mg/ml heparin, or 100 mM EDTA were added to the PCSK9-V5 conditioned media used for Far Western blotting.
Wild type human Annexin A2 (AnxA2) (ATCC #MGC-2257) and Annexin A1 (AnxA1) (ATCC #MGC-5095) were purchased from ATCC and subcloned into NheI/SacI digested pIRES2-EGFP vector. An HA epitope ([…]) was fused by PCR mutagenesis at the C-terminus of both AnxA1 and AnxA2. Two-steps PCRs were performed on AnxA2 cDNA to introduce point mutations (N62Q; S64A; K28S+D34N+E36S; R37S+E43H+K47M; 77RRTKK (SEQ ID NO: 26)>AATAK (SEQ ID NO: 27); ^77RRTKK (SEQ ID NO: 26)>AATAA (SEQ ID NO: 28); ^77RRTKKELASALK (SEQ ID NO: 29)>^77AATAAELASALA (SEQ ID NO: 30); 80KKELA (SEQ ID NO: 31)>GKPLD (SEQ ID NO: 32)), or amino acid (aa) deletions (Δ2-24, aa 2-24; ΔR1, aa 37-108; ΔR2, aa 109-192; ΔR3, aa 193-268; ΔR4, aa 269-339; Δ25-36, aa 25-36; Δ37-48, aa 37-48; Δ49-61, aa 49-61; Δ62-75, aa 62-75; Δ37-66, aa 37-66; Δ74-88, aa 74-88; Δ82-88, aa 82-88; Δ89-101, aa 89-101; Δ102-108, aa 102-108) into pIRES2-AnxA2-EGFP vector (see Table 3 above). In addition, using PCR, the AnxA2 segment aa 49-75 was swapped with the corresponding AnxA1 segment aa 58-84 [AnxA1 (aa 58-84)>AnxA2 (aa 49-75)]. Similar swaps were performed for the corresponding AnxA2 sequence with AnxA1 (AnxA1>AnxA2: aa 25-27; aa 28-30; aa 31-33; aa 34-36; aa 37-39; aa 40-42; aa 43-45; aa 46-48; aa 49-75; aa 49-61; aa 62-75). All final cDNA constructs were verified by DNA sequencing.
Target sequence in this assay (Q8NBP7 153-692): as the sequence (Q8NBP7 153-692) above
Target sequence in this assay (Q8NBP7 31-152 partner limits assumed): as the sequence (Q8NBP7 31-152 partner limits assumed) above

LDLR [4] = assay: LDLR Western blot of transfected HEK293 cells; assay type: cell-based, human; details: HEK293 cells (negligible PCSK9), with or without p11
Method: as §1
(§3) Western blotting experiments were made on samples that were reduced in Laemmli buffer, heated and resolved on 8% glycine SDS-PAGE gels. Separated proteins were then electro-transferred onto nitrocellulose, and probed with HRP-conjugated anti-V5 or anti-HA tags or with primary antibodies. […] Quantitation of band intensity was done with the ImageJ™ software version 1.37 (Wayne Rasband, National Institutes of Health, Bethesda, Md.).

[5] = tested on: PCSK9-enhanced LDLR degradation; assay: LDLR Western blot of CHO-K1 cells co-transfected with PCSK9 and AnxA2; assay type: cell-based; details: PCSK9 alone reduced LDLR by ~30%
Method: as §1, §3

LDLR [6] = assay: LDLR Western blot of HepG2 cells transfected with AnxA2; assay type: cell-based, human
Method: as §1, §3

LDLR [7] = assay: Cell surface LDLR immunofluorescence of transfected HepG2 cells; assay type: cell-based, human
Method: as §2

PCSK9-V5 [8] = target: T2, PCSK9-V5; assay: Co-immunoprecipitation in co-transfected CHO-K1 cells; assay type: binding; set-up: expressed in transfected cells; host or cells: CHO-K1 cells co-transfected with AnxA1-HA, AnxA2-HA or AnxA2-HA and p11; details: co-expression in CHO-K1 cells
Method: For immunoprecipitation cell lysates were incubated overnight at 4° C. with anti-V5-agarose beads (Sigma) and washed 5 times with cold lysis buffer.
Target sequence in this assay (Q8NBP7 153-692): as the sequence (Q8NBP7 153-692) above

Sequence of PCSK9-LDLR interaction (Q8NBP7 153-692): as above
Sequence of PCSK9-LDLR interaction (Q8NBP7 31-152 partner limits assumed): as the sequence (Q8NBP7 31-152 partner limits assumed) above
T1 sequence (Q8NBP7 153-692): as the sequence (Q8NBP7 153-692) above
T1 sequence (Q8NBP7 31-152 partner limits assumed): as the sequence (Q8NBP7 31-152 partner limits assumed) above

Molecule: peptide extending from amino acid 49 to 97: shorter AnxA2-derived peptide extending from amino acid 49 to 97 (KGVDEVTIVNILTNRSNAQRQDIAFAYQRRTKKELASALKSALSGHLET; HOMO SAPIENS)
inhibitory activity on the PCSK9-LDLR ectodomain interaction (PCSK9-LDLR interaction): inhibits the interaction between PCSK9 and the ectodomain of LDLR however to a lesser extent

Molecule: GSVKAYTNFDAERDALNIETAIKTKGVDEVTIVNILTNRSNAQRQDIAFAYQRRTKKELASALKSALSGHLET [No 896970, 73-mer AnxA2 R1 peptide extending from amino acids 25 to 97]
inhibition of the PCSK9-LDLR interaction (PCSK9-LDLR interaction; 10 uM (not shown)): up to 90%

Molecule: AnxA2: wild type human Annexin A2 isoform 2, expressed in cells by transfection
levels of endogenous LDLR (LDLR [4]): None of these treatments affected the levels of endogenous LDLR | LDLR level [5]: returned to that of the control | increase of LDLR level (LDLR [6]; HepG2, AnxA2 co-transfected with p11): ~90% | increase of LDLR level (LDLR [6]; HepG2 transfected with AnxA2 alone): ~40% | labelling intensity of cell surface LDLR (LDLR [7]; HepG2, AnxA2 alone or together with p11, vs pIRES control): strong increase | LDLR-lowering effect of WT-PCSK9 or PCSK9-D374Y (LDLR [7]; HepG2, co-expression with AnxA2): prevented their LDLR-lowering effect | PCSK9-V5 binding by Far Western blot (PCSK9-V5 [3]; lysates of cells overexpressing the construct): specifically binds

B1: AnxA1-(His)6: purified His-tagged Annexin A1 purchased from EMD biosciences (protein)
chain: MAMVSEFLKQAWFIENEEQEYVQTVKSSKGGPGSAVSPYPTFNPSSDVAALHKAIMVKGVDEATIIDILTKRNNAQRQQIKAAYLQETGKPLDETLKKALTGHLEEVVLALLKTPAQFDADELRAAMKGLGTDEDTLIEILASRTNKEIRDINRVYREELKRDLAKDITSDTSGDFRNALLSLAKGDRSEDFGVNEDLADSDARALYEAGERRKGTDVNVFNTILTTRSYPQLRRVFQKYTKYSKHDMNKVLDLELKGDIEKCLTAIVKCATSKPAFFAEKLHQAMKGVGTRHKALIRIMVSRSEIDMNDIKAFYQKMYGISLCQAILDETKGDYEKILVALCGGNHHHHHH
PCSK9-V5 bound in pull-down (PCSK9-V5 [2]): does not

Further lines, with some results ahead:

cell surface localization of PCSK9 (PCSK9): reduced | PCSK9 binding to purified protein by Far Western blot (PCSK9-V5 [3]; reducing and non-reducing conditions): binds in a dose-dependant manner
Molecule: AnxA2-(His)6: purified His-tagged Annexin A2 purchased from EMD biosciences
level of LDLR ([1]; HepG2, media of non-transfected cells, endogenous PCSK9): increased the level of LDLR | PCSK9-enhanced LDLR degradation ([1]; HepG2, ~20 h, PCSK9 conditioned media plus 5 ug/ml purified AnxA2-(His)6, ~30% without AnxA2): ~10% | PCSK9-V5 bound in pull-down (PCSK9-V5 [2]): bound PCSK9 and its furin cleaved form (PCSK9-Δ218)

co-immunoprecipitation with PCSK9-V5 (PCSK9-V5 [8]): not
B2: AnxA1: human Annexin A1, closely related family member used as control (protein, UniProt P04083 2-346, looked up)
Annexin A1: AMVSEFLKQAWFIENEEQEYVQTVKSSKGGPGSAVSPYPTFNPSSDVAALHKAIMVKGVDEATIIDILTKRNNAQRQQIKAAYLQETGKPLDETLKKALTGHLEEVVLALLKTPAQFDADELRAAMKGLGTDEDTLIEILASRTNKEIRDINRVYREELKRDLAKDITSDTSGDFRNALLSLAKGDRSEDFGVNEDLADSDARALYEAGERRKGTDVNVFNTILTTRSYPQLRRVFQKYTKYSKHDMNKVLDLELKGDIEKCLTAIVKCATSKPAFFAEKLHQAMKGVGTRHKALIRIMVSRSEIDMNDIKAFYQKMYGISLCQAILDETKGDYEKILVALCGGN
levels of endogenous LDLR (LDLR [4]): None of these treatments affected the levels of endogenous LDLR
